Data set [1] addresses voltage-gated sodium channel Nav 1.6 receptor (Homo sapiens, UniProt Q9UQD0). The note with it: cited from earlier work.
Data set [2] has as its target CB2 endocannabinoid receptor (Homo sapiens, UniProt P34972). The note with it: cited from earlier work.
Data set [3] deals with inflammatory signaling molecules. As to the kind of experiment: Inflammatory signaling molecules in plasma and CSF, mouse model of MPS IIIB. The format is in vivo. The settings on record: MPS IIIB KO mice, 100, 33 or 10 mg/kg/day oral, after 6 months, vs vehicle control. The source says:
In particular, less of one or more of IL-1alpha, IL1beta, IL-2, IL-4, IL-6, IL-8, 11-10, IL-17A, IL-23, INF-gamma, MCP-1, caspase-1, caspase-3, TNF-alpha, and TGF-beta-alpha is expected.

For another data set, the system named is MPS IIIB KO mice. As to the kind of experiment: Behavioral and cognitive tests in mouse model of MPS IIIB. The format is in vivo. The settings on record: MPS IIIB KO mice, 100, 33 or 10 mg/kg/day oral, after 6 months, vs vehicle control. The procedure:
CBD or vehicle is administered daily by oral gavage. […] At baseline, and after 3, 6, and 9 months, the mice are given behavioral tests to measure hyperactive and social interaction, and cognitive tests to measure spatial memory and learning deficits.

Data set [4] has as its system GFAP (astrocyte activation). Nature of the data set: GFAP immunoreactivity in brain slices, mouse model of MPS IIIB. The format is in vivo. The procedure: (§1) Brain slices were taken along the rostro caudal axis in a serial section. Quantification using the brain slices was performed using Image Pro Premiere software.
(§2) The breeding pairs of MPS IIIB mice were obtained from Jackson Laboratory (JAX stock #003827) and a MPS IIIB mouse colony was established. In MPS IIIB or Sanfillipo syndrome mice, both alleles of alpha-N-acetylglucosaminidase (NAGLU) are disrupted, knocked out (KO), by insertion of a neomycin resistance gene via homologous recombination. Gografe S I; Garbuzova-Davis S; Willing A E; Haas K; Chamizo W; Sanberg P R. Mouse model of Sanfilippo syndrome type B: relation of phenotypic features to background strain Comp Med 53(6):622-32. […] The heterozygous (Het) mice have only one allele of the NAGLU gene disrupted and can fully metabolize HS.
(§3) FIG. 1A and FIG. 1B show bar graphs of the percentage staining of Cluster of Differentiation 68 (CD68) and glial fibrillary acidic protein (GFAP), respectively, in serial section (one every twelve sections of 40 um thick) along the rostrocaudal axis of the brain after 30 days. […]
(§4) Quantification of brain slices was performed using Image Pro Premiere software.
(§5) After 30 days, animals were sacrificed and brain slices were taken along the rostro caudal axis in a serial section. Quantification was performed using Image Pro Premiere software.

Data set [5] relates to CD68 (microglia activation). Nature of the data set: CD68 immunoreactivity in brain slices, mouse model of MPS IIIB. The format is in vivo. The procedure: as §1, §2, §3, §4, §5
For data set [6] the following is noted: in vivo; cited from earlier work.
Where [7] appears, read: 9-month old MPS IIIB KO mice, 100 mg/kg CBD in sesame oil, oral gavage once daily for 30 days, vs KO mice given vehicle.
Setting [8] is: MPS IIIB KO mice, 100 mg/kg oral, 30 days, representative brain slices.

Broadly, the IC50 is the point on the concentration scale where inhibition reaches its midpoint.

Sequence of voltage-gated sodium channel Nav 1.6 receptor (Q9UQD0 whole entry): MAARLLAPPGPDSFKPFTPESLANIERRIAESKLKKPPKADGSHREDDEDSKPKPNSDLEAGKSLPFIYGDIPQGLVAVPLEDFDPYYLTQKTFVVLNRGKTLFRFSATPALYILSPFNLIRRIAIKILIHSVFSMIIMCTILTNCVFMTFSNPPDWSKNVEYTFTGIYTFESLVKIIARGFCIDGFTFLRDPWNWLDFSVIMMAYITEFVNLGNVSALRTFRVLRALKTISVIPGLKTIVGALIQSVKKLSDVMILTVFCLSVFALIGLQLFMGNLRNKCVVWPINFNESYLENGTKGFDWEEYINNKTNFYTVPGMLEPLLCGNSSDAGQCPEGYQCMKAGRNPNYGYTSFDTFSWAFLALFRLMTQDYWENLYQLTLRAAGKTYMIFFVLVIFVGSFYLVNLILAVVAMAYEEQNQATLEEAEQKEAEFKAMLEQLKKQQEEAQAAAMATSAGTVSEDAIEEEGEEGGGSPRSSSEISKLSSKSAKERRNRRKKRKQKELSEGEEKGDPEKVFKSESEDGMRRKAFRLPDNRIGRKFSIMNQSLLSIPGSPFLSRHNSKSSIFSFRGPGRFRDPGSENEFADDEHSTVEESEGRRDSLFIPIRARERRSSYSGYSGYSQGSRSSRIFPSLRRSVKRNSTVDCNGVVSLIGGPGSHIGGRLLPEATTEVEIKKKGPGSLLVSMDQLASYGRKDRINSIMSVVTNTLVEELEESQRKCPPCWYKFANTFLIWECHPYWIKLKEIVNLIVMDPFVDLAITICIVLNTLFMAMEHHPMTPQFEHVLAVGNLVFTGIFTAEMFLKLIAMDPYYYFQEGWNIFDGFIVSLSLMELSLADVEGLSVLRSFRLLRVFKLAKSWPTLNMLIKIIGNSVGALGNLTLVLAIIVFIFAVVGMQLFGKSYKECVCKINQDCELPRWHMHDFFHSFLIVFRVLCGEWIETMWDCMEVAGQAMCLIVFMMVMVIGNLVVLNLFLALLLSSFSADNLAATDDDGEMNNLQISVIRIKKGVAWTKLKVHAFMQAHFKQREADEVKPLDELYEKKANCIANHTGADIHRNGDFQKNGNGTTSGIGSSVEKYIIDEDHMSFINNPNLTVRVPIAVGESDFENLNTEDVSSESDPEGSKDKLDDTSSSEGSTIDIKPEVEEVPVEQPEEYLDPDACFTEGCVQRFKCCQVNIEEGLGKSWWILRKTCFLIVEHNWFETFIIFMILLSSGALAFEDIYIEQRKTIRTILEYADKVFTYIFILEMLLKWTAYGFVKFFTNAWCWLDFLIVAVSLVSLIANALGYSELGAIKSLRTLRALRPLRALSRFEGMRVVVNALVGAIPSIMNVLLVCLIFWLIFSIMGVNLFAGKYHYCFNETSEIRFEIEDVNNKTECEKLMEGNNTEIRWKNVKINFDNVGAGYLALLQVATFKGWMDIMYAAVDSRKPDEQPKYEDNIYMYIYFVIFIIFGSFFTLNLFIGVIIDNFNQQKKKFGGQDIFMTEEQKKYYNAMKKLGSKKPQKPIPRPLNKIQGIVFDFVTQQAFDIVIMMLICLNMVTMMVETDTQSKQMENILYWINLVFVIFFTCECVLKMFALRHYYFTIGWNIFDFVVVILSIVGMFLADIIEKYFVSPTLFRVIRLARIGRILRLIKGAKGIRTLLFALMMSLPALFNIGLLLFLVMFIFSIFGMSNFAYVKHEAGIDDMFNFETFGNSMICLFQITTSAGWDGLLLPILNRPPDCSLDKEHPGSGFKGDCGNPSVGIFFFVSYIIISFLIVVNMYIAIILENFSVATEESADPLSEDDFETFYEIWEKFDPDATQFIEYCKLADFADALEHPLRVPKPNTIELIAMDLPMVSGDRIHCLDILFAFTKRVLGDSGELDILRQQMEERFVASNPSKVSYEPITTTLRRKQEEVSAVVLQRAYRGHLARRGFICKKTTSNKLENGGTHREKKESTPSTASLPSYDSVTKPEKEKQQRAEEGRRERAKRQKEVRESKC
Sequence of CB2 endocannabinoid receptor (P34972 whole entry): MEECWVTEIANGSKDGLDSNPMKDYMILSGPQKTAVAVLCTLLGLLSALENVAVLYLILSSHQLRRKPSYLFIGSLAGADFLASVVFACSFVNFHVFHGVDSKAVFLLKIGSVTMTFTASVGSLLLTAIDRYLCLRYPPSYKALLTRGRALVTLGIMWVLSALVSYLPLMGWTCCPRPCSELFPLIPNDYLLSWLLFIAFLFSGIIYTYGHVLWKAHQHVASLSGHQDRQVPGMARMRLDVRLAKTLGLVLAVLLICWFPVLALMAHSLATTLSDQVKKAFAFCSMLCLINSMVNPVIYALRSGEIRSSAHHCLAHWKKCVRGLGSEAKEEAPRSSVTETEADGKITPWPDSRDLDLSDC

On to `C=C(C)[C@@H]1CCC(C)=C[C@H]1c1c(O)cc(CCCCC)cc1O` [CBD, Cannabidiol], for which, in data set [1], the IC50 was 1 to 6 µM and the “affinity to Nav 1.6 receptor” value was “uM affinity”. For the same compound, the “affinity to CB2 receptor” value in data set [2] is given as “uM affinity”. Moreover, the “inflammatory signaling molecules in plasma and CSF” value in data set [3] was “less inflammatory signaling molecules”. In the data set on MPS IIIB KO mice, the hyperactivity result was “less hyperactivity”, the learning deficit entry is listed as “less learning deficit”, the social interaction result was “more social interaction” and the spatial memory result is listed as “less loss of spatial memory”. In data set [4] (setting [7]), the “decrease in the immunoreactivity of GFAP (% area) in brain” value is 50%. Also, in data set [4] (setting [8]), the “astrocyte cell neuroinflammation and activation (GFAP)” value was “significantly decreases”. For the same compound, the “decrease in the immunoreactivity of CD68 (% area) in brain” value in data set [5] (setting [7]) is on record as 30%. The “microglia cell neuroinflammation and activation (CD68)” value in data set [5] (setting [8]) is “significantly decreases”.

As to Adalimumab, the “crossing of the BBB” value in data set [6] was “does not cross the BBB”.

The values above are taken from patent US20240082268A1, “METHODS AND COMPOSITIONS FOR CONTROLLING NEUROINFLAMMATION” (Invenux, LLC, priority 2021, published 2024).
